The RepoRT retention time repository (doi:10.1021/es4044374)

Assay: RP, Waters XBridge C18, 50 × 2.1 mm, 3.5 µm, 30 °C, 0.2 mL/min, estimated dead time 0.55 min; A: water + 0.1% formic acid, pH 3; B: methanol + 0.1% formic acid, pH 3; gradient (min/%B) 0/10 4/50 17/95 25/95 25.1/10 30/10
Details: stereoisomer not certain

Row | Structure (SMILES) | LC retention time
1 | CCc1cccc(C)c1N(C(=O)CCl)C(C)COC (stereo unspecified) [Metolachlor] | 11.8 min
2 | CC(C)(C)c1n[nH]c(=O)n(N)c1=O [Metribuzin-diketo] | 5.9 min
3 | CSc1nnc(C(C)(C)C)c(=O)n1N [Metribuzin] | 6.9 min
4 | Cc1ncc([N+](=O)[O-])n1CCO [Metronidazole] | 2.1 min
5 | COC(=O)c1ccccc1S(=O)(=O)NC(=O)Nc1nc(C)nc(OC)n1 [Metsulfuron-methyl] | 7.1 min
6 | C=C1C(=O)NC(C)C(=O)NC(CC(C)C)C(=O)NC(C(=O)O)C(C)C(=O)NC(CCCN=C(N)N)C(=O)NC(C=CC(C)=CC(C)C(Cc2ccccc2)OC)C(C)C(=O)NC(C(=O)O)CCC(=O)N1C (stereo unspecified) [Microcystin-LR] | 10.2 min
7 | CN(C)C(=O)Nc1ccc(Cl)cc1 [Monuron] | 6.7 min
8 | CN1CCC23c4c5ccc(O)c4OC2C(O)C=CC3C1C5 (stereo unspecified) [Morphine] | 1.1 min
9 | CCCCC(C#N)(Cn1cncn1)c1ccc(Cl)cc1 (stereo unspecified) [Myclobutanil] | 11.2 min
10 | CN=CNc1ccc(C)cc1C [N'-(2,4-Dimethylphenyl)-N-methylformamidine] | 4.5 min
11 | CN(C)S(N)(=O)=O [N,N-Dimethylsulfamide] | 1.1 min
12 | CCNS(=O)(=O)C(F)(F)C(F)(F)C(F)(F)C(F)(F)C(F)(F)C(F)(F)C(F)(F)C(F)(F)F [N-Ethylperfluoroctansulfonamid (N-EtFOSA)] | 17.1 min
13 | CCN(CC(=O)O)S(=O)(=O)C(F)(F)C(F)(F)C(F)(F)C(F)(F)C(F)(F)C(F)(F)C(F)(F)C(F)(F)F [N-Ethylperfluorooctane sulfonamidoacetic acid] | 16.9 min
14 | CN(CC(=O)O)S(=O)(=O)C(F)(F)C(F)(F)C(F)(F)C(F)(F)C(F)(F)C(F)(F)C(F)(F)C(F)(F)F [N-methylperfluorooctane sulfonamidoacetic acid] | 16.5 min
15 | O=C1CCC2(O)C3Cc4ccc(O)c5c4C2(CCN3CC2CC2)C1O5 (stereo unspecified) [Naltrexone] | 3.1 min
16 | CCN(CC)C(=O)C(C)Oc1cccc2ccccc12 (stereo unspecified) [Napropamid] | 11.7 min
17 | COc1cc(OC)nc(NC(=O)NS(=O)(=O)c2ncccc2C(=O)N(C)C)n1 [Nicosulfuron] | 7.1 min
18 | CCn1cc(C(=O)O)c(=O)c2cc(F)c(N3CCNCC3)cc21 [Norfloxacin] | 4.4 min
19 | CCC(CC)OC1C=C(C(=O)O)CC(N)C1NC(C)=O (stereo unspecified) [Oseltamivir carboxylate] | 5.1 min
20 | CCOC(=O)C1=CC(OC(CC)CC)C(NC(C)=O)C(N)C1 (stereo unspecified) [Oseltamivir] | 7 min
21 | O=C1Nc2ccc(Cl)cc2C(c2ccccc2)=NC1O (stereo unspecified) [Oxazepam] | 9 min
22 | O=C(O)C(F)(F)C(F)(F)C(F)(F)F [Perfluorobutyric acid] | 5.1 min
23 | O=C(O)C(F)(F)C(F)(F)C(F)(F)C(F)(F)C(F)(F)C(F)(F)C(F)(F)C(F)(F)C(F)(F)F [Perfluorodecanoic acid] | 15.2 min
24 | O=P(O)(O)OCCC(F)(F)C(F)(F)C(F)(F)C(F)(F)C(F)(F)C(F)(F)C(F)(F)C(F)(F)F [Perfluorodecyl phosphate] | 14.7 min
25 | O=C(O)C(F)(F)C(F)(F)C(F)(F)C(F)(F)C(F)(F)C(F)(F)F [Perfluoroheptanoic acid] | 11.1 min

Row | Structure (SMILES) | LC retention time
26 | O=C(O)C(F)(F)C(F)(F)C(F)(F)C(F)(F)C(F)(F)F [Perfluorohexanoic acid] | 9.3 min
27 | O=C(O)C(F)(F)C(F)(F)C(F)(F)C(F)(F)C(F)(F)C(F)(F)C(F)(F)C(F)(F)F [Perfluorononanoic acid] | 13.9 min
28 | O=C(O)CNS(=O)(=O)C(F)(F)C(F)(F)C(F)(F)C(F)(F)C(F)(F)C(F)(F)C(F)(F)C(F)(F)F [Perfluorooctane sulfonamidoacetic acid] | 15.9 min
29 | O=C(O)C(F)(F)C(F)(F)C(F)(F)C(F)(F)C(F)(F)C(F)(F)C(F)(F)F [Perfluorooctanoic acid] | 12.6 min
30 | O=P(O)(O)OCCC(F)(F)C(F)(F)C(F)(F)C(F)(F)C(F)(F)C(F)(F)F [Perfluorooctyl phosphate] | 12.1 min
31 | O=C(O)C(F)(F)C(F)(F)C(F)(F)C(F)(F)F [Perfluoropentanoic acid] | 7.3 min
32 | O=C(O)C(F)(F)C(F)(F)C(F)(F)C(F)(F)C(F)(F)C(F)(F)C(F)(F)C(F)(F)C(F)(F)C(F)(F)F [Perfluoroundecanoic acid] | 16.3 min
33 | CCOCCN(C(=O)CCl)C(=C(C)C)c1ccccc1 [Pethoxamide] | 11.5 min
34 | COC(=O)Nc1cccc(OC(=O)Nc2cccc(C)c2)c1 [Phenmedipham] | 9.5 min
35 | CCc1cc(C)cc(CC)c1-c1c(OC(=O)C(C)(C)C)n2n(c1=O)CCOCC2 [Pinoxaden] | 13.7 min
36 | Cc1nc(N(C)C)nc(OC(=O)N(C)C)c1C [Pirimicarb] | 5 min
37 | CCC(C)C(=O)OC1CC(O)C=C2C=CC(C)C(CCC(O)CC(O)CC(=O)O)C21 (stereo unspecified) [Pravastatin] | 9.2 min
38 | CC12C=CC(=O)C=C1CCC1C2C(O)CC2(C)C1CCC2(O)C(=O)CO (stereo unspecified) [Prednisolone] | 8 min
39 | CCCN(CCOc1c(Cl)cc(Cl)cc1Cl)C(=O)n1ccnc1 [Prochloraz] | 12.2 min
40 | COc1nc(NC(C)C)nc(NC(C)C)n1 [Prometon] | 6.7 min
41 | CSc1nc(NC(C)C)nc(NC(C)C)n1 [Prometryn] | 8.5 min
42 | CC(C)N(C(=O)CCl)c1ccccc1 [Propachlor] | 8.6 min
43 | CCCOC(=O)NCCCN(C)C [Propamocarb] | 2.4 min
44 | CC(C)=NOCCOC(=O)C(C)Oc1ccc(Oc2cnc3cc(Cl)ccc3n2)cc1 (stereo unspecified) [Propaquizafop] | 15 min
45 | CC(C)Nc1nc(Cl)nc(NC(C)C)n1 [Propazine] | 9.9 min
46 | CCCC1COC(Cn2cncn2)(c2ccc(Cl)cc2Cl)O1 (stereo unspecified) [Propiconazole] | 13.1 min
47 | CCCN(CCC)C(=O)SCc1ccccc1 [Prosulfocarb] | 14.4 min
48 | CC1=NNC(=O)N(N=Cc2cccnc2)C1 [Pymetrozine] | 1.5 min
49 | COC(=O)N(OC)c1ccccc1COc1ccn(-c2ccc(Cl)cc2)n1 [Pyraclostrobin] | 13.4 min
50 | Cc1cc(C)nc(Nc2ccccc2)n1 [Pyrimethanil] | 7.6 min

Now from value to molecule:

Row | LC retention time | Structure (SMILES)
51 | 4.3 min | CCN(CC)CCNC(=O)c1cc(Cl)c(N)cc1OC [Metoclopramide]
52 | 7.8 min | CCc1cccc(C)c1N(C(=O)CS(=O)(=O)O)C(C)COC (stereo unspecified) [Metolachlor ESA]
53 | 9.3 min | CCc1cccc(C)c1N(C(=O)C(=O)O)C(C)COC (stereo unspecified) [Metolachlor OXA]
54 | 8.2 min | CCc1cccc(C)c1N1C(=O)COCC1C (stereo unspecified) [Metolachlor morpholinone]
55 | 5.1 min | COCCc1ccc(OCC(O)CNC(C)C)cc1 (stereo unspecified) [Metoprolol]
56 | 4.5 min | O=C(NCCN1CCOCC1)c1ccc(Cl)cc1 [Moclobemide]
57 | 9.9 min | COc1c(C)c2c(c(O)c1CC=C(C)CCC(=O)O)C(=O)OC2 [Mycophenolic acid]
58 | 3.6 min | CC(=O)Nc1ccc(S(=O)(=O)Nc2ncccn2)cc1 [N4-Acetylsulfadiazine]
59 | 6.3 min | COc1cc(OC)nc(NS(=O)(=O)c2ccc(NC(C)=O)cc2)n1 [N4-Acetylsulfadimethoxine]
60 | 4.5 min | CC(=O)Nc1ccc(S(=O)(=O)Nc2nc(C)cc(C)n2)cc1 [N4-Acetylsulfamethazine]
61 | 5.5 min | CC(=O)Nc1ccc(S(=O)(=O)Nc2cc(C)on2)cc1 [N4-Acetylsulfamethoxazole]
62 | 4.1 min | CC(=O)Nc1ccc(S(=O)(=O)Nc2nccs2)cc1 [N4-Acetylsulfathiazole]
63 | 6.3 min | COc1ccc(C(CN)C2(O)CCCCC2)cc1 (stereo unspecified) [N,N-Didesmethylvenlafaxine]
64 | 7.5 min | Cc1ccc(NS(=O)(=O)N(C)C)cc1 [N,N-Dimethyl-N'-p-tolylsulphamide]
65 | 6.3 min | CN(C)S(=O)(=O)Nc1ccccc1 [N,N-Dimethyl-N'-phenylsulfamide]
66 | 4.9 min | CNCC(c1ccc(O)cc1)C1(O)CCCCC1 (stereo unspecified) [N,O-Didesmethylvenlafaxine]

Row | LC retention time | Structure (SMILES)
67 | 6.3 min | CNCC(c1ccc(OC)cc1)C1(O)CCCCC1 (stereo unspecified) [N-Desmethylvenlafaxine]
68 | 10.2 min | COc1ccc2cc(C(C)C(=O)O)ccc2c1 (stereo unspecified) [Naproxen]
69 | 7.2 min | COc1ccc(CCC(=O)c2c(O)cc(OC3OC(CO)C(O)C(O)C3OC3OC(C)C(O)C(O)C3O)cc2O)cc1O (stereo unspecified) [Neohesperidin dihydrochalcone]
70 | 9 min | COC(=O)C(Cc1ccccc1)NC(=O)C(CC(=O)O)NCCC(C)(C)C (stereo unspecified) [Neotame]
71 | 4.8 min | CN(C)CC(c1ccc(O)cc1)C1(O)CCCCC1 (stereo unspecified) [O-desmethylvenlafaxine]
72 | 13.3 min | CCN(CC)C(=O)SCc1ccccc1Cl [Orbencarb]
73 | 6.6 min | COc1ccnc(CS(=O)c2nc3ccc(OC(F)F)cc3[nH]2)c1OC (stereo unspecified) [Pantoprazole]
74 | 2.2 min | CC(=O)Nc1ccc(O)cc1 [Paracetamol]
75 | 5.4 min | CCC1(c2ccccc2)C(=O)NCNC1=O [Primidone]
76 | 5.9 min | CC(C)N(C(=O)CS(=O)(=O)O)c1ccccc1 [Propachlor ESA]
77 | 5.6 min | CC(C)N(C(=O)C(=O)O)c1ccccc1 [Propachlor OXA]
78 | 6.6 min | CC(C)NCC(O)COc1cccc2ccccc12 (stereo unspecified) [Propranolol]
79 | 3.4 min | Cc1cc(=O)[nH]c(C(C)C)n1 [Pyrimidinol]
80 | 2.4 min | CNC(=C[N+](=O)[O-])NCCSCc1ccc(C[N+](C)(C)[O-])o1 [Ranitidine N-oxide]
81 | 0.8 min | CNC(=C[N+](=O)[O-])NCCS(=O)Cc1ccc(CN(C)C)o1 (stereo unspecified) [Ranitidine-S-oxide]
